Source: ChEMBL document CHEMBL5634208, “Design and synthesis of Meldrum's acid based 7-azaindole anchored 1,2,3-triazole hybrids as anticancer agents” (RSC Med Chem, 2024)
Active and inactive are the calls of the source. No cut-off for these calls is given here.

How the values were obtained:
[1] = tested on: HeLa; experiment: Anticancer activity against human HeLa cells assessed as inhibition of cell growth measured after 48 hrs by MTT assay; type: functional, cell-based
[2] = tested on: HepG2; experiment: Anticancer activity against human HepG2 cells assessed as inhibition of cell growth measured after 48 hrs by MTT assay; type: functional, cell-based; settings: HepG2, 48 h
[3] = tested on: MCF7; experiment: Anticancer activity against human MCF7 cells assessed as inhibition of cell growth measured after 48 hrs by MTT assay; type: functional, cell-based; settings: MCF7, 48 h
[4] = tested on: DU-145; experiment: Anticancer activity against human DU-145 cells assessed as inhibition of cell growth measured after 48 hrs by MTT assay; type: functional, cell-based; settings: DU-145, 48 h
[5] = Cytotoxicity against HEK293 cells assessed as inhibition of cell growth measured after 48 hrs by MTT assay; type: toxicity, cell-based; settings: human
[6] = tested on: K562; experiment: Anticancer activity against human K562 cells assessed as inhibition of cell growth measured after 48 hrs by MTT assay; type: functional, cell-based; settings: K562, 48 h
[7] = tested on: HeLa; experiment: Induction of cell cycle arrest in human HeLa cells assessed as accumulation of cells at S phase at 1 uM measured after 48 hrs by propidium iodide staining based flow cytometry analysis (reference value: 1.0%); type: functional
[8] = tested on: HeLa; experiment: Induction of cell cycle arrest in human HeLa cells assessed as accumulation of cells at subG1 phase at 1 uM measured after 48 hrs by propidium iodide staining based flow cytometry analysis (reference value: 6.8%); type: functional
[9] = tested on: HeLa; experiment: Induction of apoptosis in human HeLa cells assessed as necrotic cells at 5 uM measured after 48 hrs by annexin V-FITC based propidium iodide dual staining based flow cytometry analysis (reference value: 1.0%); type: functional
[10] = tested on: HeLa; experiment: Induction of cell cycle arrest in human HeLa cells assessed as accumulation of cells at S phase at 5 uM measured after 48 hrs by propidium iodide staining based flow cytometry analysis (reference value: 1.0%); type: functional
[11] = tested on: HeLa; experiment: Induction of apoptosis in human HeLa cells assessed as late apoptotic cells at 5 uM measured after 48 hrs by annexin V-FITC based propidium iodide dual staining based flow cytometry analysis (reference value: 3.5%); type: functional
[12] = tested on: HeLa; experiment: Induction of apoptosis in human HeLa cells assessed as necrotic cells at 1 uM measured after 48 hrs by annexin V-FITC based propidium iodide dual staining based flow cytometry analysis (reference value: 1.0%); type: functional
[13] = tested on: HeLa; experiment: Induction of apoptosis in human HeLa cells assessed as viable cells at 1 uM measured after 48 hrs by annexin V-FITC based propidium iodide dual staining based flow cytometry analysis (reference value: 81.7%); type: functional; settings: read-out: Activity
[14] = tested on: K562; experiment: Downregulation of MCL-1 expression in human K562 cells measured after 48 hrs by RT-qPCR analysis; type: functional, cell-based; settings: dose 1-5 µM
[15] = tested on: HeLa; experiment: Induction of apoptosis in human HeLa cells assessed as early apoptotic cells at 1 uM measured after 48 hrs by annexin V-FITC based propidium iodide dual staining based flow cytometry analysis (reference value: 13.8%); type: functional
[16] = tested on: HeLa; experiment: Induction of apoptosis in human HeLa cells assessed as nuclear condensation at 1 to 5 uM measured after 48 hrs by Hoechst staining based fluorescent microscopic analysis; type: functional, cell-based; settings: dose 1-5 µM
[17] = tested on: HeLa; experiment: Induction of cell cycle arrest in human HeLa cells assessed as accumulation of cells at G0/G1 phase at 1 uM measured after 48 hrs by propidium iodide staining based flow cytometry analysis (reference value: 85.6%); type: functional
[18] = tested on: HeLa; experiment: Induction of cell cycle arrest in human HeLa cells assessed as accumulation of cells at G2/M phase at 1 uM measured after 48 hrs by propidium iodide staining based flow cytometry analysis (reference value: 6.9%); type: functional
[19] = tested on: HeLa; experiment: Induction of cell cycle arrest in human HeLa cells assessed as accumulation of cells at G2/M phase at 5 uM measured after 48 hrs by propidium iodide staining based flow cytometry analysis (reference value: 6.9%); type: functional
[20] = tested on: HeLa; experiment: Induction of apoptosis in human HeLa cells assessed as late apoptotic cells at 1 uM measured after 48 hrs by annexin V-FITC based propidium iodide dual staining based flow cytometry analysis (reference value: 3.5%); type: functional
[21] = tested on: HeLa; experiment: Induction of apoptosis in human HeLa cells assessed as early apoptotic cells at 5 uM measured after 48 hrs by annexin V-FITC based propidium iodide dual staining based flow cytometry analysis (reference value: 13.8%); type: functional
[22] = tested on: HeLa; experiment: Induction of cell cycle arrest in human HeLa cells assessed as accumulation of cells at subG1 phase at 5 uM measured after 48 hrs by propidium iodide staining based flow cytometry analysis (reference value: 6.8%); type: functional
[23] = tested on: HeLa; experiment: Induction of cell cycle arrest in human HeLa cells assessed as accumulation of cells at G0/G1 phase at 5 uM measured after 48 hrs by propidium iodide staining based flow cytometry analysis (reference value: 85.6%); type: functional
[24] = tested on: K562; experiment: Downregulation of EGFR expression in human K562 cells measured after 48 hrs by RT-qPCR analysis; type: functional, cell-based; settings: dose 1-5 µM
[25] = tested on: HeLa; experiment: Induction of apoptosis in human HeLa cells assessed as viable cells at 5 uM measured after 48 hrs by annexin V-FITC based propidium iodide dual staining based flow cytometry analysis (reference value: 81.7%); type: functional; settings: read-out: Activity
[26] = tested on: K562; experiment: Downregulation of MCL-1 expression in human K562 cells at 1 to 5 uM measured after 48 hrs by RT-qPCR analysis; type: functional, cell-based; settings: dose 1-5 µM
[27] = tested on: K562; experiment: Downregulation of EGFR expression in human K562 cells at 1 to 5 uM measured after 48 hrs by RT-qPCR analysis; type: functional, cell-based; settings: dose 1-5 µM

| SMILES | IC50 [1] | IC50 [2] | IC50 [3] | IC50 [4] | IC50 at 48 h [5] | IC50 [6] | other results |
| --- | --- | --- | --- | --- | --- | --- | --- |
| CC1(C)OC(=O)C(=Cc2cn(Cc3cn(-c4ccc(Br)cc4F)nn3)c3ncccc23)C(=O)O1 | 10.3 µM | 27.8 µM | 19.9 µM | 22.6 µM | 90.8 µM | 19.1 µM |  |
| COc1ccc(-n2cc(Cn3cc(C=C4C(=O)OC(C)(C)OC4=O)c4cccnc43)nn2)cc1 | 15.9 µM | 42.1 µM | 36.1 µM | 33.8 µM | 99.7 µM | 16.4 µM |  |
| CC1(C)OC(=O)C(=Cc2cn(Cc3cn(-c4ccc(I)cc4)nn3)c3ncccc23)C(=O)O1 | 16.2 µM | 27.9 µM | 15.2 µM | 32.1 µM | > 100 µM | 16.8 µM |  |
| COc1cc(OC)cc(-n2cc(Cn3cc(C=C4C(=O)OC(C)(C)OC4=O)c4cccnc43)nn2)c1 | 9.68 µM | 28.4 µM | 20.2 µM | 14.7 µM | 81.7 µM | 14.5 µM |  |
| CC1(C)OC(=O)C(=Cc2cn(Cc3cn(-c4ccccc4Cl)nn3)c3ncccc23)C(=O)O1 | 12.8 µM | 21.9 µM | 18 µM | 15.4 µM | > 100 µM | 16.1 µM |  |
| COc1cc(-n2cc(Cn3cc(C=C4C(=O)OC(C)(C)OC4=O)c4cccnc43)nn2)cc(OC)c1OC | 9.52 µM | 20.1 µM | 13.1 µM | 18.8 µM | 76.6 µM | 14.3 µM |  |
| CC1(C)OC(=O)C(=Cc2cn(Cc3cn(-c4ccccc4)nn3)c3ncccc23)C(=O)O1 | 21.3 µM | 29.2 µM | 28.3 µM | 49.3 µM | > 100 µM | 20.2 µM |  |
| CC1(C)OC(=O)C(=Cc2cn(Cc3cn(-c4ccc(Br)cc4)nn3)c3ncccc23)C(=O)O1 | 6.87 µM | 29.1 µM | 7.32 µM | 15.4 µM | 93.9 µM | 12.5 µM |  |
| CC1(C)OC(=O)C(=Cc2cn(Cc3cn(-c4ccc(Cl)cc4)nn3)c3ncccc23)C(=O)O1 | 16.7 µM | 24.5 µM | 22.9 µM | 22.6 µM | 97.3 µM | 20.5 µM |  |
| Cc1ccc(-n2cc(Cn3cc(C=C4C(=O)OC(C)(C)OC4=O)c4cccnc43)nn2)cc1 | 4.44 µM | 9.97 µM | 6.67 µM | 12.4 µM | > 100 µM | 6.03 µM | Activity [7]: 2.1%; Activity [8]: 6%; Activity [9]: 0.3%; Activity [10]: 2.7%; Activity [11]: 4.6%; Activity [12]: 1.5%; viability at 1 µM [13]: 79.2%; Activity [14]: Dose-Dependent Effect; Activity [15]: 16.8%; Activity [16]: Active; Activity [17]: 72.2%; Activity [18]: 20.7%; Activity [19]: 54.4%; Activity [20]: 2.5%; Activity [21]: 39.7%; Activity [22]: 3.1%; Activity [23]: 39.1%; Activity [24]: Dose-Dependent Effect; viability at 5 µM [25]: 55.4% |
| CC1(C)OC(=O)C(=Cc2cn(Cc3cn(-c4ccc(F)cc4)nn3)c3ncccc23)C(=O)O1 | 18.9 µM | 37 µM | 20.8 µM | 22.8 µM | > 100 µM | 19.1 µM |  |
| CC1(C)OC(=O)C(=Cc2cn(Cc3cn(-c4cccc(Cl)c4)nn3)c3ncccc23)C(=O)O1 | 12.8 µM | 26.6 µM | 20.1 µM | 28.4 µM | > 100 µM | 17.2 µM |  |
| COc1cccc2c1C(=O)c1c(O)c3c(c(O)c1C2=O)C[C@@](O)(C(=O)CO)C[C@@H]3O[C@H]1C[C@H](N)[C@H](O)[C@H](C)O1 [DOXORUBICIN] |  |  | 1.48 µM |  |  | 1.23 µM | Activity [7]: 3%; Activity [8]: 4.2%; Activity [9]: 0.5%; Activity [10]: 2.6%; Activity [11]: 4.8%; Activity [12]: 1.7%; viability at 1 µM [13]: 75.6%; Activity [15]: 19.6%; Activity [26]: Active; Activity [17]: 60%; Activity [27]: Active; Activity [18]: 34.2%; Activity [19]: 52.7%; Activity [20]: 3.1%; Activity [21]: 30.3%; Activity [22]: 3.7%; Activity [23]: 40.3%; viability at 5 µM [25]: 64.4% |
| CC1(C)OC(=O)C(=Cc2cn(Cc3cn(-c4cc(Cl)cc(Cl)c4)nn3)c3ncccc23)C(=O)O1 | 25 µM | 49.4 µM | 25.4 µM | 37.8 µM | > 100 µM | 26.8 µM |  |
| CC1(C)OC(=O)C(=Cc2cn(Cc3cn(-c4ccc([N+](=O)[O-])cc4)nn3)c3ncccc23)C(=O)O1 | 19.4 µM | 30.1 µM | 25.8 µM | 27.7 µM | > 100 µM | 21.4 µM |  |
| CC1(C)OC(=O)C(=Cc2cn(Cc3cn(-c4ccc(Cl)c(Cl)c4)nn3)c3ncccc23)C(=O)O1 | 16.6 µM | 26.1 µM | 24.2 µM | 33.8 µM | > 100 µM | 20.2 µM |  |
